{"source": "paper PMC4414346", "about": "“Crystal Structure of Allophycocyanin from Marine Cyanobacterium Phormidium sp. A09DM” (PLoS ONE, 2015)", "biological_target": "T1, Phormidium APC (allophycocyanin) (Phormidium rubidum, UniProt A0A078K1U6+A0A078K4M9)", "T1 construct": "gene apcA; native purification from the cyanobacterium; no tags; alpha 18064 Da and beta 18011 Da with chromophore; trimer of alpha-beta monomers (118 kDa); N-methylasparagine in beta; GenBank entries partial (alpha 9-161, beta 1-155), corrected in structure: alpha N10K, R49C, D145N, beta E35K", "experiment": "X-ray crystallography, […] A", "type": "binding", "details": "covalent; one chromophore on Cys-81 of alpha and one on Cys-81 of beta; alpha-chromophore site also lined by beta residues in the trimer; crystals pH 8.5, PEG 6000", "data": [{"smiles": "C/C=C1/C(=C/c2[nH]c(/C=C3N=C(/C=C4\\NC(=O)C(CC)=C4C)C(C)=C\\3CCC(=O)O)c(CCC(=O)O)c2C)NC(=O)[C@@H]1C", "note": "[phycocyanobilin]", "values": [{"measurement": "X-ray crystallography, 2.51 A", "result": "One PCB chromophore is covalently bonded to the conserved Cys-81 of α-subunit (α-chromophore)"}]}]}
